Laboratory results from US20240190831A1, “TRANSTHYRETIN STABILIZING COMPOUNDS” (Protego Biopharma, Inc., priority 2021, published 2024).

Assay: In vitro rat liver S9 stability assay (formation of tafamidis)
Type: in vitro ADME
Details: rat liver S9, 1 μM test compound, 37° C.
Description: A stability assay in liver S9 (rat or human) was used to evaluate the ability of a compound provided herein to convert to an active TTR stabilizer. The test compound was added to liver S9 and incubated at 37° C. in a water bath at a concentration of 1 μM. At each time point (0, 5, 10, 20, 30 and 60 min), stop solution (tolbutamide plus labetalol) was added to precipitate protein and mixed thoroughly. After centrifugation, an aliquot of supernatant was analyzed by LC-MS/MS. The percentage of formation of active agent was calculated at each time point.
For `O=C(OC1CCN(c2ccncc2)C1)c1ccc2nc(-c3cc(Cl)cc(Cl)c3)oc2c1` (stereo not shown) [Compound 50, 1-(pyridin-4-yl)pyrrolidin-3-yl 2-(3,5-dichlorophenyl)benzo-[d]oxazole-6-carboxylate], the “Formation of tafamidis at 60 min” value was “A (A is <25%)”. With `O=C(OC1CCN(c2ncccn2)C1)c1ccc2nc(-c3cc(Cl)cc(Cl)c3)oc2c1` (stereo not shown) [Compound 51, 1-(pyrimidin-2-yl)pyrrolidin-3-yl 2-(3,5-dichlorophenyl)benzo-[d]oxazole-6-carboxylate] the “Formation of tafamidis at 60 min” value was “B (B is ≥25 to <50%)”. With `O=C(OC1CCN(c2cnccn2)C1)c1ccc2nc(-c3cc(Cl)cc(Cl)c3)oc2c1` (stereo not shown) [Compound 52, 1-(pyrazin-2-yl)pyrrolidin-3-yl 2-(3,5-dichlorophenyl)benzo-[d]oxazole-6-carboxylate] the “Formation of tafamidis at 60 min” value was “A (A is <25%)”. For `O=C(OC1CCN(c2ccncn2)C1)c1ccc2nc(-c3cc(Cl)cc(Cl)c3)oc2c1` (stereo not shown) [Compound 53, 1-(pyrimidin-4-yl)pyrrolidin-3-yl 2-(3,5-dichlorophenyl)benzo-[d]oxazole-6-carboxylate], the “Formation of tafamidis at 60 min” value was “A (A is <25%)”. For `O=C(OC1CCN(c2cccnn2)C1)c1ccc2nc(-c3cc(Cl)cc(Cl)c3)oc2c1` (stereo not shown) [Compound 54, 1-(pyridazin-3-yl)pyrrolidin-3-yl 2-(3,5-dichlorophenyl)benzo-[d]oxazole-6-carboxylate], the “Formation of tafamidis at 60 min” value was “A (A is <25%)”. In the case of `O=C(OC1CCN2CCCCC12)c1ccc2nc(-c3cc(Cl)cc(Cl)c3)oc2c1` (stereo not shown) [Compound 55, Octahydroindolizin-1-yl 2-(3,5-dichlorophenyl)benzo[d]oxazole-6-carboxylate], the “Formation of tafamidis at 60 min” value is reported as “B (B is ≥25 to <50%)”. In the case of `Cc1ncc2n1CC(OC(=O)c1ccc3nc(-c4cc(Cl)cc(Cl)c4)oc3c1)CC2` (stereo not shown) [Compound 56, 3-methyl-5,6,7,8-tetrahydroimidazo [1,5-a] pyridin-6-yl 2-(3,5-dichlorophenyl) benzo[d]oxazole-6-carboxylate], the “Formation of tafamidis at 60 min” value is reported as “A (A is <25%)”. With `CC(C)(N1CCC(OC(=O)c2ccc3nc(-c4cc(Cl)cc(Cl)c4)oc3c2)C1)C(F)(F)F` (stereo not shown) [Compound 57, 1-(1,1,1-trifluoro-2-methylpropan-2-yl)pyrrolidin-3-yl 2-(3,5-dichlorophenyl)benzo[d]oxazole-6-carboxylate] the “Formation of tafamidis at 60 min” value was “A (A is <25%)”. For `O=C(OC1CCc2nc[nH]c2C1)c1ccc2nc(-c3cc(Cl)cc(Cl)c3)oc2c1` (stereo not shown) [Compound 60, 4,5,6,7-tetrahydro-1H-benzo[d]imidazol-6-yl 2-(3,5-dichlorophenyl) benzo[d]oxazole-6-carboxylate], the “Formation of tafamidis at 60 min” value was “A (A is <25%)”. In the case of `O=C(O[C@H]1C[C@@H](O)C1)c1ccc2nc(-c3cc(Cl)cc(Cl)c3)oc2c1` [Compound 63, (cis)-3-hydroxycyclobutyl 2-(3,5-dichlorophenyl) benzo[d]oxazole-6-carboxylate], the “Formation of tafamidis at 60 min” value is reported as “A (A is <25%)”. In the case of `O=C(O[C@H]1C[C@H](O)C1)c1ccc2nc(-c3cc(Cl)cc(Cl)c3)oc2c1` [Compound 64, (trans)-3-hydroxycyclobutyl 2-(3,5-dichlorophenyl) benzo[d]oxazole-6-carboxylate], the “Formation of tafamidis at 60 min” value is reported as “B (B is ≥25 to <50%)”. For `O=C(OC1CC(=O)N2CCCCC12)c1ccc2nc(-c3cc(Cl)cc(Cl)c3)oc2c1` (stereo not shown) [Compound 65, 3-oxooctahydroindolizin-1-yl 2-(3,5-dichlorophenyl)benzo-[d]oxazole-6-carboxylate], the “Formation of tafamidis at 60 min” value was “C (C is ≥50 to <75%)”. With `O=C(OC1CCN(CCO)C1)c1ccc2nc(-c3cc(Cl)cc(Cl)c3)oc2c1` (stereo not shown) [Compound 66] the “Formation of tafamidis at 60 min” value was “A (A is <25%)”. In the case of `COCCN1CCC(OC(=O)c2ccc3nc(-c4cc(Cl)cc(Cl)c4)oc3c2)C1` (stereo not shown) [Compound 67, 1-(2-methoxyethyl) pyrrolidin-3-yl 2-(3,5-dichlorophenyl) benzo[d]oxazole-6-carboxylate], the “Formation of tafamidis at 60 min” value is reported as “A (A is <25%)”. For `CC(Cc1cnc[nH]1)OC(=O)c1ccc2nc(-c3cc(Cl)cc(Cl)c3)oc2c1` (stereo not shown) [Compound 80], the “Formation of tafamidis at 60 min” value was “A (A is <25%)”. In the case of `O=C(c1ccc2nc(-c3cc(Cl)cc(Cl)c3)oc2c1)N1CCOCC1` [Compound 81], the “Formation of tafamidis at 60 min” value is reported as “A (A is <25%)”. For `O=C(c1ccc2nc(-c3cc(Cl)cc(Cl)c3)oc2c1)N1CCC(O)CC1` [Compound 82], the “Formation of tafamidis at 60 min” value was “A (A is <25%)”. With `O=C(c1ccc2nc(-c3cc(Cl)cc(Cl)c3)oc2c1)N1CCCC1CO` (stereo not shown) [Compound 85] the “Formation of tafamidis at 60 min” value was “A (A is <25%)”. With `O=C(c1ccc2nc(-c3cc(Cl)cc(Cl)c3)oc2c1)N1CC(O)C(F)(F)C1` (stereo not shown) [Compound 86] the “Formation of tafamidis at 60 min” value was “A (A is <25%)”. With `CN(C)C(=O)c1ccc2nc(-c3cc(Cl)cc(Cl)c3)oc2c1` [Compound 87, 2-(3,5-Dichlorophenyl)-N,N-dimethylbenzo[d]oxazole-6-carboxamide] the “Formation of tafamidis at 60 min” value was “A (A is <25%)”. In the case of `O=C(c1ccc2nc(-c3cc(Cl)cc(Cl)c3)oc2c1)N1CCCC1` [Compound 88], the “Formation of tafamidis at 60 min” value is reported as “A (A is <25%)”. In the case of `O=C(c1ccc2nc(-c3cc(Cl)cc(Cl)c3)oc2c1)N1CCCCC1` [Compound 89], the “Formation of tafamidis at 60 min” value is reported as “A (A is <25%)”. In the case of `O=C(c1ccc2nc(-c3cc(Cl)cc(Cl)c3)oc2c1)N(CCO)CC(F)F` [Compound 90], the “Formation of tafamidis at 60 min” value is reported as “A (A is <25%)”. For `O=C(c1ccc2nc(-c3cc(Cl)cc(Cl)c3)oc2c1)N(CCO)CCF` [Compound 91], the “Formation of tafamidis at 60 min” value was “A (A is <25%)”. For `CC1(O)CCN(C(=O)c2ccc3nc(-c4cc(Cl)cc(Cl)c4)oc3c2)C1` (stereo not shown) [Compound 92], the “Formation of tafamidis at 60 min” value was “A (A is <25%)”. For `O=C(c1ccc2nc(-c3cc(Cl)cc(Cl)c3)oc2c1)N1CC2(CC(O)C2)C1` [Compound 94], the “Formation of tafamidis at 60 min” value was “A (A is <25%)”. With `O=C(c1ccc2nc(-c3cc(Cl)cc(Cl)c3)oc2c1)N1CCCCC1CO` (stereo not shown) [Compound 95] the “Formation of tafamidis at 60 min” value was “A (A is <25%)”. In the case of `O=C(N[C@H]1CC[C@@H](O)CC1)c1ccc2nc(-c3cc(Cl)cc(Cl)c3)oc2c1` [Compound 96], the “Formation of tafamidis at 60 min” value is reported as “A (A is <25%)”. For `O=C(N[C@H]1CC[C@H](O)CC1)c1ccc2nc(-c3cc(Cl)cc(Cl)c3)oc2c1` [Compound 97], the “Formation of tafamidis at 60 min” value was “A (A is <25%)”. For `O=C(NC1CC2(CC(O)C2)C1)c1ccc2nc(-c3cc(Cl)cc(Cl)c3)oc2c1` (stereo not shown) [Compound 98], the “Formation of tafamidis at 60 min” value was “A (A is <25%)”. In the case of `O=C(N[C@@H]1CCC[C@H](O)C1)c1ccc2nc(-c3cc(Cl)cc(Cl)c3)oc2c1` [Compound 99], the “Formation of tafamidis at 60 min” value is reported as “A (A is <25%)”. With `O=C(N[C@@H]1CCC[C@@H](O)C1)c1ccc2nc(-c3cc(Cl)cc(Cl)c3)oc2c1` [Compound 100] the “Formation of tafamidis at 60 min” value was “A (A is <25%)”. With `CC1(O)CCCN(C(=O)c2ccc3nc(-c4cc(Cl)cc(Cl)c4)oc3c2)C1` (stereo not shown) [Compound 102] the “Formation of tafamidis at 60 min” value was “A (A is <25%)”. With `CC1(O)CCN(C(=O)c2ccc3nc(-c4cc(Cl)cc(Cl)c4)oc3c2)CC1` [Compound 103] the “Formation of tafamidis at 60 min” value was “A (A is <25%)”. In the case of `O=C(c1ccc2nc(-c3cc(Cl)cc(Cl)c3)oc2c1)N1CCC2(CC(O)C2)C1` (stereo not shown) [Compound 105], the “Formation of tafamidis at 60 min” value is reported as “A (A is <25%)”. With `CC1(O)CC2(CCN(C(=O)c3ccc4nc(-c5cc(Cl)cc(Cl)c5)oc4c3)C2)C1` (stereo not shown) [Compound 106] the “Formation of tafamidis at 60 min” value was “A (A is <25%)”. In the case of `O=C(c1ccc2nc(-c3cc(Cl)cc(Cl)c3)oc2c1)N1CC2(CCC(O)C2)C1` (stereo not shown) [Compound 107], the “Formation of tafamidis at 60 min” value is reported as “A (A is <25%)”.
